In patent US7928113B2, “Integrin-binding small molecules” (University of Southern California, priority 2005, dated 2011):
Read-outs that look alike come from different tables or passages of the source.

What was measured:
[1] = Cytotoxicity MTT assay, MDA-MB-435; type: cell-based, human; conditions: human, MDA-MB-435 breast cancer cells; MDA-MB-435, Table 5
Text: (§1) Cell Culture. Human breast cancer cells (MCF-7, αvβ3—, overexpressed wild-type p53, ER+; MDA-MB 468, p53 mutant, ER+; and MDA-MB-435, αvβ3+, p53 mutant, ER−) and non-small cell lung cancer cells H1975 were obtained from the American Type Cell Culture (Rockville, Md. Q4). The HEY human ovarian carcinoma cell line naturally resistant to cisplatin (CDDP) was kindly provided by Dr. Dubeau (University of Southern California Norris Cancer Center). Cells were maintained as monolayer cultures in RPMI 1640 supplemented with 10% fetal bovine serum (Gemini-Bioproducts, Woodland, Calif.) and 2 mmol/L L-glutamine at 37° C. in a humidified atmosphere of 5% CO2. To remove the adherent cells from the flask for passaging and counting, cells were washed with PBS without calcium or magnesium, incubated with a small volume of 0.25% trypsin-EDTA solution (Sigma, St. Louis, Mo.) for 5 to 10 minutes, and washed with culture medium and centrifuged. All experiments were done using cells in exponential cell growth.
(§2) Cytotoxicity Assay. Cytotoxicity was assessed by 3-(4,5-dimethylthiazol-2-yl)-2,5-diphenyltetrazolium bromide (MTT) assay as previously described.^41, 54 Briefly, cells were seeded in 96-well microtiter plates and allowed to attach. Cells were subsequently treated with a continuous exposure to the corresponding drug for 72 hours. An MTT solution (at a final concentration of 0.5 mg/mL) was added to each well and cells were incubated for 4 hours at 37° C. After removal of the medium, DMSO was added and the absorbance was read at 570 nm. All assays were done in triplicate. The IC50 was then determined for each drug from a plot of log (drug concentration) versus percentage of cell kill.
(§3) Cytotoxicity of Selected Compounds in a Panel of Cancer Cell lines. Initially, we tested all compounds in two breast cancer cell lines MDA-MB-435 and MCF7 with high and low αvβ3 expression as well as in HEY ovarian cancer cell line naturally resistant to cisplatin. […] We observed a remarkable specificity for some of the compounds against these cells. […] Considering the fact that αvβ3 mediates migration, attachment and apoptosis of cancer cells, the combination of these novel high affinity antagonists with conventional cytotoxic drugs should show improved therapeutic benefits without additional toxicity.
(§4) NVX-188 was tested for cytotoxicity by MTT assays in two breast cancer cell lines, MDA-MB-435 with high αvβ3 integrin expression and MCF7 with low αvβ3 integrin expression, and an ovarian cancer cell line, HEY, which was used to test for cell growth inhibition evidence. NVX-188 was further evaluated in a lung cancer cell line, NCI-H1975, and a mouse fibroblast, NIH3T3. NVX-188 was not cytotoxic at the highest dose level tested (20 uM).

[2] = tested on: MDA-MB-435 breast cancer cell line; test: Cytotoxicity MTT assay, MDA-MB-435; type: cell-based, human; conditions: for inhibition at 20 µM: Homo sapiens, MDA-MB-435, 72 h MTT, read-out: % inhibition of cell growth at 20 μM, 435
Text: as §1, §2, §3, §4

[3] = Cytotoxicity MTT assay, MCF7; type: cell-based, human; conditions: human, MCF-7 breast cancer cells; MCF-7, Table 5
Text: as §1, §2, §3, §4

[4] = tested on: MCF7 breast cancer cell line; test: Cytotoxicity MTT assay, MCF7; type: cell-based, human; conditions: for inhibition at 20 µM: Homo sapiens, MCF7, 72 h MTT, read-out: % inhibition of cell growth at 20 μM, MCF7
Text: as §1, §2, §3, §4

[5] = Cytotoxicity MTT assay, HEY; type: cell-based, human; conditions: human, HEY ovarian carcinoma cells; HEY, Table 5
Text: as §1, §2, §3, §4

[6] = tested on: HEY ovarian cancer cell line; test: Cytotoxicity MTT assay, HEY; type: cell-based, human; conditions: for inhibition at 20 µM: Homo sapiens, HEY, 72 h MTT, read-out: % inhibition of cell growth at 20 μM, HEY
Text: as §1, §2, §3, §4

[7] = tested on: panel of cancer cell lines; test: Cytotoxicity MTT assay, statements on the whole panel of cell lines; type: cell-based; conditions: for specificity of cytotoxicity among the cell lines (in words): five cell lines of Table 5; for cytotoxicity (in words): MTT, panel of cell lines, highest dose tested 20 uM
Experimental: as §2, §3, §4

αvβ3 integrin = target: T1, αvβ3 integrin (Homo sapiens, UniProt P05106+P06756); test: Receptor binding assay, competitive binding with 125I-labeled echistatin on the surface of NCI-H1975 cells; conditions: for IC50 / αvβ3 binding affinity (in words): 125I-echistatin competition, NCI-H1975 cells
T1 construct: endogenous in cells; host or cells: NCI-H1975 cells (non-small cell lung cancer), whole cells in suspension
Experimental: Receptor Binding Assay. […] 96-Well multiscreen DV plate (filter pore size: 0.65 μm, Millipore, Billerica, Mass.) was incubated with ^125I-echistatin (50,000 cpm/well) in the presence of increasing concentrations of αvβ3 antagonists. The total incubation volume was adjusted to 200 μL. After the cells were incubated for 3 h at room temperature, the plate was filtered through multiscreen vacuum manifold and washed twice with cold binding buffer. The hydrophilic PVDF filters were collected, and the radioactivity was determined using NaI(Tl) gamma counter (Packard, Meriden, Conn.). The best-fit IC50 values were calculated by fitting the data by nonlinear regression using GraphPad Prism (GraphPad Software, Inc., San Diego, Calif.). Experiments were carried out with triplicate samples.
αvβ3 Binding. Receptor binding affinity of all compounds on the surface of non-small cell lung cancer NCI-H1975 cells was determined in competitive binding experiments using ^125I-labeled echistatin as radioligand and the results are presented in Table 3. […] These compounds represent a novel set of antagonists with diverse structural scaffolds. […] This is an important feature considering the highly electrostatic nature of the RGD peptide binding region of αvβ3. The RGD peptide forms strong electrostatic interactions through its two charged ends with αvβ3 in the αvβ3-cyclic RGD peptide complex crystal structure. Compounds AV3, AV27, and AV32 broadly fall into a RGD mimetic antagonist category, since they have a carboxylate group or amine/amide group, at either ends that can establish similar electrostatic interactions with αvβ3. Additionally, presence of several hydrophilic functional groups on these compounds favors their interaction with the highly electrostatic region of the RGD binding site of αvβ3. Given these interesting structural features, we tested additional structurally close analogues of AV27 and AV32. However, substructure search queries using the core scaffolds of these compounds in our in-house databases yield no close analogues. Structure-activity studies around the core scaffolds of these two compounds might be an alternative option to further optimize their binding affinity towards αvβ3. […] We carried out a limited structure-activity relationship (SAR) analysis on compound AV26 by testing compounds AV34-AV38 in our binding assay (Table 3). The substructure search using the core scaffold of AV26 as a search query retrieved few compounds from our in-house database of 359,224 compounds. The analogues AV34-AV38 were purchased from Chemical Diversity (San Diego, Calif.) and screened for their αvβ3 binding affinity. […] Studies are also underway to selectively deliver cytotoxic agents such as paclitaxel to αvβ3 overexpressing cancers through covalent conjugation.
Receptor binding affinity of NVX-188 was determined through a competitive binding experiment using ^125I-radiolabeled echistatin on NCI-H1975 cells. Increasing concentrations of NVX-188 were added with a fixed amount of echistatin to determine the concentration of NVX-188 that prevents 50% of the echistatin from binding to αvβ3 integrin on the cell surface (i.e., IC50).

[8] = Cytotoxicity MTT assay, NIH3T3; type: cell-based, mouse; conditions: mouse, NIH3T3 fibroblasts; NIH3T3, Table 5
Experimental: as §2, §3, §4

[9] = Cytotoxicity MTT assay, NCI-H1975; type: cell-based, human; conditions: human, NCI-H1975 non-small cell lung cancer cells; NCI-H1975, Table 5
Text: as §1, §2, §3, §4

NIH3T3 mouse fibroblast = test: Cytotoxicity MTT assay, NIH3T3; type: cell-based; conditions: Table B
Experimental: as §2, §3, §4

[10] = tested on: NCI-H1975 lung cancer cell-line; test: Cytotoxicity MTT assay, NCI-H1975; type: cell-based, human; conditions: Table B
Text: as §1, §2, §3, §4

[11] = read-out: αvβ3 binding affinity (IC50)

| IC50 (αvβ3 integrin; [11]) [pM] | SMILES | IC50 at 72 h [1] [µM] | inhibition at 20 µM [2] [%] | IC50 at 72 h [3] [µM] | inhibition at 20 µM [4] [%] | IC50 at 72 h [5] [µM] | inhibition at 20 µM [6] [%] | specificity of cytotoxicity among the cell lines (in words) [7] | IC50 at 72 h [8] [µM] | IC50 at 72 h [9] [µM] | cytotoxicity (in words) [7] | further results |
| --- | --- | --- | --- | --- | --- | --- | --- | --- | --- | --- | --- | --- |
| – | CN(C)c1ccc(/C=C2\SC(=Nc3ccc(O)cc3)NC2=O)cc1 [AV34] | 2.8 ± 0.01 | 65 | > 20 | 31 | > 20 | 25 | A similar trend, but smaller magnitude | – | – | – | – |
| 52000 | Nc1nc(O)c2nc(CCCNc3ccc(C(=O)NC(CCC(=O)O)C(=O)O)cc3)cnc2n1 (stereo not shown) [AV3] | > 20 | 0 | > 20 | 0 | > 20 | 0 | – | > 20 | > 20 | – | – |
| 18000 | Cc1ccc(NC(=O)CN2C(=O)N/C(=C\c3cccn3-c3cccc(C(=O)O)c3)C2=O)cc1 [AV27] | > 20 | 0 | > 20 | 0 | > 20 | 5 | – | > 20 | > 20 | – | – |
| 240000 | CCOc1cc(/C=C2\S/C(=N/c3ccc(C(=O)O)cc3)N(C)C2=O)ccc1O [AV26] | 0.34 ± 0.06 | 94 | > 20 | 37 | 13 ± 8 | 51 | – | > 20 | > 20 | considerable cytotoxicity in a breast cancer cell line | fold selectivity for MDA-MB-435 cells as compared to the HEY cells ([2]; cytotoxicity IC50 ratio): ~40 fold; fold selectivity for MDA-MB-435 cells as compared to the MCF7, NIH3T3, and CRL5908 cells ([2]; cytotoxicity IC50 ratio): more than 60 fold |
| – | COc1cc(Cl)c(/C=C2\S/C(=N/c3cccc(C(=O)O)c3)N(C)C2=O)cc1OC [AV38] | > 20 | 0 | > 20 | 18 | > 20 | 0 | – | > 20 | > 20 | not cytotoxic | αvβ3 binding affinity (in words) (αvβ3 integrin): high-affinity binding characteristics at picomolar concentrations; αvβ3 binding affinity (in words) (αvβ3 integrin; listed as NVX-188): active at picomolar concentrations; IC50 (αvβ3 integrin; same value restated in pM, read-out: αvβ3 integrin binding affinity (IC50)): 30 pM; fold higher affinity than the parent compound AV26 (αvβ3 integrin; ratio of αvβ3 binding IC50 to AV26): 800 fold; IC50 ([2]; Table B): > 20 µM; IC50 ([4]; Table B): > 20 µM; IC50 ([6]; Table B): > 20 µM; IC50 (NIH3T3 mouse fibroblast): > 20 µM; IC50 [10]: > 20 µM |
| – | O=C(O)c1cccc(-c2ccc(/C=N/Nc3nc4nonc4nc3Nc3ccc(F)cc3)o2)c1 [AV30] | 8 ± 0.5 | 71 | 19 ± 4 | 52 | 7 ± 0.42 | 90 | a profile very similar in MDA-MB-435, HEY, and NIH3T3 cells, but was significantly less active against MCF-7 and NCI-H1975 cells | 13 ± 3 | > 20 | – | – |
